Values joined by “and” are separate entries in the source; they are usually repeats but may differ in a detail not shown here. Identical values can stand only once. “Also recorded” adds a separate entry of the source. Counter-ions that a name gives are not always drawn. Like-named read-outs stand apart in the source and are kept apart here. Each block holds one compound with its values, some of them ahead of it.
Experiments:
[1] = target: porcine kidney DAAO (Sus scrofa (Pig), UniProt P00371); assay: DAAO enzymatic assay; type: biochemical
Experimental: The DAAO activity was measured by using substrate D-alanine reaction produced hydrogen peroxide (H2O2) to further react with 3-(4-hydroxyphenyl) propionic acid (HPPA). The HPPA were oxidized by H2O2 and peroxidase to become the fluorogenic dimer which was measured to represent the activity of DAAO. The substrate of DAAO was prepared in 50 mM D-alanine (dissolved in 0.2 M Tris-HCl buffer, pH 8.3). […] A 10 ul of D-alanine and drug mixture was incubated with 220 ul of Reaction Master Mix in black 96 well plate at 37° C. for 5 min. The Reaction Master Mix contained 110 ul of 5 U/mL porcine kidney DAAO (Sigma-Aldrich, USA) solution (dissolved with 0.2 M Tris-HCl buffer, pH 8.3), 1.1 mL of 15 U/mL peroxidase solution (dissolved with 0.2 M Tris-HCl buffer, pH 8.3), 1.1 mL of 20 mM HPPA solution (dissolved with 0.2 M Tris-HCl buffer, pH 8.3), and 2.2 ml of 2 M Tris-HCl buffer (pH 8.3) for 110 reaction assays.
The higher is the DAAO enzymatic activity, the higher is the fluorescence intensity. The fluorometric inhibition indicator (Fi) was obtained from the following equation: Fi=(Fs−FDrug)/(FDMSO). Where the fluorescent drug blank (FDrug) were measured in the drug mixture solution (using 0.2 M Tris HCl buffer, pH 8.3, without D-alanine). A DMSO blank (FDMSO) was measured under a 100% DMSO solution. Although, in the assay for D-amino acid oxidase, FAD was generally included in the reaction mixture because this co-factor is easily dissociated from the holoenzyme, the present method was performed without FAD. […] The IC50 value was calculated by GraphPad Prism, version 5 software (GraphPad Software, Inc., La Jolla, Calif.) (GraphPad Prism 5, GraphPad software Inc: California, USA) through nonlinear regression model.

[2] = system: WT mice; assay: Hot plate test in WT mouse model; type: in vivo; settings: 55° C. hot plate, 40 mg/kg i.p., vs WT controls, listed as RS-D7
Text: (§1) Taking advantage of wild-type (WT, healthy) mouse and pharmacologic animal models of schizophrenia, such as MK-801 and methamphetamine mouse model of schizophrenia, as the well-established animal models of schizophrenia, we investigate the therapeutic potential of RS-D7, a DAO inhibitor, on the alleviation of schizophrenia-related negative and cognitive deficits. A serial of behavioral tasks has been selected and conducted for mimicking the cognitive (e.g., prepulse inhibition) and negative symptoms (e.g., sucrose preference test and hot plate test) of schizophrenia in healthy control mice or pharmacological mouse model of schizophrenia (Lai, W. S et al., Current Pharmaceutical Design, 2014, 20(32), 5139-50). The pharmacological animal model of schizophrenia is due in part to similarities in clinical presentation and response to treatment. These behavioral tasks have been evaluated with varying degrees of test validities for assessing schizophrenia-relevant behavioral deficits in mice. Different batches of male adult C57/B16 mice were used and the details of different behavioral tasks were described elsewhere.
For schizophrenia-like negative symptoms in mice, hot plate test was used to assess basic pain and nociception function in mice. […]

[3] = system: WT mice; assay: Prepulse inhibition (PPI) in WT mouse model; type: in vivo; settings: 20 mg/kg i.p., 78 dB prepulse, vs saline controls, listed as RS-D7
Text: as §1
To assess schizophrenia-like cognitive function in mice, prepulse inhibition (PPI) was used to evaluate sensorimotor gating functions in mice after RS-D7 injection. […]

[4] = system: ICR mice with methamphetamine injection; assay: Prepulse inhibition in methamphetamine mouse model of schizophrenia; type: in vivo; settings: ICR mice with methamphetamine 3 mg/kg i.p., 20 mg/kg i.p., especially 74 dB prepulse, vs DMSO and CBIO controls; listed as RS-D7
Text: Methamphetamine is a potent psychostimulant that increases the amount of extracellular dopamine in the brain. Methamphetamine (or amphetamine)-induced psychosis model has been well-established and useful for schizophrenia in laboratory animals.

[5] = system: C57/B16 mice with MK-801 injection; assay: Sucrose preference test in MK-801 mouse model of schizophrenia; type: in vivo; settings: mice given MK-801 0.2 mg/kg i.p., 20 mg/kg RS-D7
Text: as §1
(§2) MK-801 is a non-competitive NMDA receptor antagonist. An injection and chronic injections of MK-801 provide a potential animal model to mimic both the negative and cognitive symptoms of schizophrenia. […]

[6] = system: C57/B16 mice with MK-801 injection; assay: Hot plate test in MK-801 mouse model of schizophrenia; type: in vivo; settings: mice given MK-801 0.2 mg/kg i.p.; listed as RS-D7
Text: as §1, §2

[7] = system: C57/B16 mice with MK-801 injection; assay: Prepulse inhibition in MK-801 mouse model of schizophrenia; type: in vivo; settings: mice given MK-801 0.2 mg/kg i.p., 40 mg/kg RS-D7
Text: as §1, §2

[8] = porcine kidney DAAO, D-alanine substrate, HPPA fluorescence, pH 8.3, 37° C.

Sequence of porcine kidney DAAO (P00371 whole entry): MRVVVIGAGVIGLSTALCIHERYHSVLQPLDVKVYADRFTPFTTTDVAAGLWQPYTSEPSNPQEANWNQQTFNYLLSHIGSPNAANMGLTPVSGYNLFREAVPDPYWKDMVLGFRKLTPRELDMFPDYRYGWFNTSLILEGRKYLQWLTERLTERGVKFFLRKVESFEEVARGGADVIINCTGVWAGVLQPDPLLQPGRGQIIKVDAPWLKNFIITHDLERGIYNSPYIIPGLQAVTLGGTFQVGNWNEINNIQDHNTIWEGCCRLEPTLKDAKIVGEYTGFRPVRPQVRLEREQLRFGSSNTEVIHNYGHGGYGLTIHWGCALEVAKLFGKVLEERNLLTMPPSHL

IC50 [1, 8]: 97.6 µM
SMILES: CCN(CC)Cc1cc(Nc2ccnc3cc(Cl)ccc23)ccc1O [Amodiaquin, reference compound]

IC50 [1, 8]: 106 µM
SMILES: COc1ccc2nc([S@@+]([O-])Cc3ncc(C)c(OC)c3C)[nH]c2c1 [Esomeprazole, reference compound]

IC50 [1, 8]: 102 µM
SMILES: Clc1ccc2c(c1)N=C(N1CCNCC1)c1ccccc1N2 [N-Desmethylclozapine]

Second part, the compound before the results:

SMILES: COc1c(C)cnc(C[S+]([O-])c2nc3cc(O)ccc3[nH]2)c1C (stereo not shown) [5-O-Desmethyl-Omeprazole]
IC50 [1, 8]: 1.19 µM and 1 to 10 µM
latency of mouse first reaction (jump) on hot plate [2]: increases nociception function; also recorded: accelerated
numbers of jump on hot plate [2]: increases nociception function; also recorded: increased
prepulse inhibition (sensorimotor gating function) [3]: increases; also recorded: induced a greater PPI
prepulse inhibition (sensorimotor gating function) [4]: alleviates sensorimotor gating deficit; also recorded: induce a greater PPI
sucrose uptake in sucrose preference test (anhedonia) [5]: alleviates; also recorded: rescued the MK-801 induced deficit
latency in hot plate test [6]: alleviates; also recorded: alleviated the MK-801-induced alteration
reaction numbers in hot plate test [6]: alleviates; also recorded: alleviated the MK-801-induced alteration
acoustic prepulse inhibition [7]: alleviates; also recorded: significantly alleviated MK-801 induced PPI deficit

SMILES: CNCC[C@H](Oc1cccc2ccccc12)c1cccs1 [Duloxetine, reference compound]
IC50 [1]: 5.47 µM

SMILES: COc1ccc(OC[C@@H]2CNCC[C@H]2c2ccc(F)cc2)cc1O [PM-BRL 36583A, (−)-trans 4-(4-Fluorophenyl)-3-(3-hydroxy-4-methoxyphenoxymethyl) piperidine]
IC50 [1, 8]: 3.67 µM

SMILES: COc1cc(OC[C@@H]2CNCC[C@H]2c2ccc(F)cc2)ccc1O [PM-BRL 36610A, (−)trans 4-(4-fluorophenyl)-3-(4-hydroxy-3-methoxyphenoxymethyl)piperidine-hydrochloride]
IC50 [1, 8]: 3.45 µM

SMILES: O=C([O-])c1ccccc1.[Na+] [sodium benzoate, reference compound]
IC50 [1]: ~71.7 µM

Source: patent USRE49340E1, “Use of known compounds as D-amino acid oxidase inhibitors” (National Taiwan University, priority 2014, dated 2022)
